# In patent US20230355646A1, “AUTOPHAGY ACTIVATOR” (Resonac Corporation, priority 2020, published 2023):
# Tested on: human neuroblastoma (SH-SY5Y)
# Assay: Apoptosis suppressing action caused by amyloid β in human neuroblastoma (Hoechst 33342 staining)
# Assay type: cell-based
# Description: The proportion of apoptotic cells in human neuroblastoma (SH-SY5Y; obtained from ATCC) in the presence of an autophagy activator was measured by the following test method to evaluate the apoptosis suppressing action of the autophagy activator.
# In the following examples and comparative examples, tests were performed by adding amyloid β, which is known to induce cell death called apoptosis of nerve cells due to a decrease in autophagy, to each medium.
# SH-SY5Y cells were prepared at a seeding density of 50000 cells/cm^2 and cultured for 24 hours in D-MEM medium/Ham's F-12 medium (manufactured by Sigma-Aldrich) to which 10% fetal bovine serum (manufactured by MP Biomedicals) was added. […]
# Thereafter, an aqueous solution of 10 μM Hoechst 33342 (manufactured by Sigma-Aldrich) was added to each SH-SY5Y cell from which the medium was removed, and the cells were allowed to stand at room temperature (25° C.) for 10 minutes. After removing the solution, each SH-SY5Y cell was washed with phosphate buffer (PBS, manufactured by Wako Pure Chemical Industries, Ltd.), and with a fluorescence microscope, the number of cells showing strong apoptosis-like Hoechst fluorescence due to chromatin aggregation (Hoechst (+) cells) was counted. […]
smiles,measurement,setting,value
"COc1ccc([C@@H]2CC(=O)c3c(O)cc(O[C@@H]4O[C@H](CO[C@@H]5O[C@@H](C)[C@H](O)[C@@H](O)[C@H]5O)[C@@H](O)[C@H](O)[C@H]4O)cc3O2)cc1O [Comparative Example 2, hesperidin]",proportion of apoptotic cells (in words),"SH-SY5Y cells with amyloid β, compared to DMSO and amyloid β of Comparative Example 7",decreased
same,Proportion of apoptotic cells,"SH-SY5Y cells, 30 μM amyloid β present, 10^−2% (V/V) methyl hesperidin or hesperidin, additional ingredient where in the example, 48 hours, relative value, Reference Example 4 = 1.00",3.76
